{"source": "patent US4229533A", "about": "“Method for producing antibiotic C-15003 P-4” (priority 1977, dated 1980)", "key": {"Bacillus cereus": {"tested_on": "Bacillus cereus", "assay": "Antimicrobial activity by the paper disc method", "type": "cell-based", "settings": "8 mm, 0.02 ml of a 300 μg/ml solution, trypticase-soy agar", "method": "(§1) With trypticase-soy agar (BBL) as an assay medium, the inhibitory concentrations against the microorganisms described below were investigated by the paper disc method. Thus, filter-paper discs (Toyo Seisakusho, thin-type, 8 mm in dia.) each impregnated with 0.02 ml of a 300 μg/ml solution of P-4 were placed on agar plates respectively inoculated with the microorganisms described below. P-4 had no activity against the following bacteria. Escherichia coli, Proteus vulgaris, Proteus mirabilis, Pseudomonas aeruginosa, Staphylococcus aureus, Bacillus subtilis, Bacillus cereus, Klebsiella pneumoniae, Serratia marcescens and Mycobacterium avium"}, "Bacillus subtilis": {"tested_on": "Bacillus subtilis", "assay": "Antimicrobial activity by the paper disc method", "type": "cell-based", "settings": "8 mm, 0.02 ml of a 300 μg/ml solution, trypticase-soy agar", "method": "as §1"}, "Escherichia coli": {"tested_on": "Escherichia coli", "assay": "Antimicrobial activity by the paper disc method", "type": "cell-based", "settings": "8 mm, 0.02 ml of a 300 μg/ml solution, trypticase-soy agar", "method": "as §1"}, "Klebsiella pneumoniae": {"tested_on": "Klebsiella pneumoniae", "assay": "Antimicrobial activity by the paper disc method", "type": "cell-based", "settings": "8 mm, 0.02 ml of a 300 μg/ml solution, trypticase-soy agar", "method": "as §1"}, "Mycobacterium avium": {"tested_on": "Mycobacterium avium", "assay": "Antimicrobial activity by the paper disc method", "type": "cell-based", "settings": "8 mm, 0.02 ml of a 300 μg/ml solution, trypticase-soy agar", "method": "as §1"}, "Proteus mirabilis": {"tested_on": "Proteus mirabilis", "assay": "Antimicrobial activity by the paper disc method", "type": "cell-based", "settings": "8 mm, 0.02 ml of a 300 μg/ml solution, trypticase-soy agar", "method": "as §1"}, "Proteus vulgaris": {"tested_on": "Proteus vulgaris", "assay": "Antimicrobial activity by the paper disc method", "type": "cell-based", "settings": "8 mm, 0.02 ml of a 300 μg/ml solution, trypticase-soy agar", "method": "as §1"}, "Pseudomonas aeruginosa": {"tested_on": "Pseudomonas aeruginosa", "assay": "Antimicrobial activity by the paper disc method", "type": "cell-based", "settings": "8 mm, 0.02 ml of a 300 μg/ml solution, trypticase-soy agar", "method": "as §1"}, "Serratia marcescens": {"tested_on": "Serratia marcescens", "assay": "Antimicrobial activity by the paper disc method", "type": "cell-based", "settings": "8 mm, 0.02 ml of a 300 μg/ml solution, trypticase-soy agar", "method": "as §1"}, "Staphylococcus aureus": {"tested_on": "Staphylococcus aureus", "assay": "Antimicrobial activity by the paper disc method", "type": "cell-based", "settings": "8 mm, 0.02 ml of a 300 μg/ml solution, trypticase-soy agar", "method": "as §1"}, "Fusicladium levieri": {"tested_on": "Fusicladium levieri", "assay": "Activity against microorganisms", "type": "cell-based"}, "[1]": {"tested_on": "Helminthosporium sigmoidium var. irregulare", "assay": "Activity against microorganisms", "type": "cell-based"}, "Pyricularia oryzae": {"tested_on": "Pyricularia oryzae", "type": "cell-based"}, "Cochlioborus miyabeanus": {"tested_on": "Cochlioborus miyabeanus", "assay": "Activity against microorganisms", "type": "cell-based"}, "Sclerotinia screrotiorum": {"tested_on": "Sclerotinia screrotiorum", "assay": "Activity against microorganisms", "type": "cell-based"}, "Pellicularia sasakii": {"tested_on": "Pellicularia sasakii", "assay": "Activity against microorganisms", "type": "cell-based"}, "Trichophyton rubrum": {"tested_on": "Trichophyton rubrum", "assay": "Activity against microorganisms", "type": "cell-based"}, "Rhodotorula ruba": {"tested_on": "Rhodotorula ruba", "assay": "Activity against microorganisms", "type": "cell-based"}, "Cryptococcus neoformans": {"tested_on": "Cryptococcus neoformans", "assay": "Activity against microorganisms", "type": "cell-based"}, "P388 leukemia": {"tested_on": "P388 leukemia", "assay": "Antitumour activity upon P388 leukemia in mice", "type": "in vivo, mouse", "settings": "1×10^6 cells/animal i.p., 0.00625 mg/kg/day intraperitoneally for 9 consecutive days", "text": "The therapeutic effects of P-4 (dosed intraperitoneally for 9 consecutive days) upon P388 leukemia in mice (1×10^6 cells/animal, mouse, intraperitoneally transplanted) was investigated."}, "[2]": {"assay": "Preliminary acute toxicity test with mice", "settings": "mouse, in vivo, ip, intraperitoneal", "text": "In a preliminary acute toxicity test with mice as test animals, which involved intraperitoneal injections of P-4."}, "Solubility": {"assay": "Solubility", "type": "physicochemical"}}, "data": [{"smiles": "COc1cc2cc(c1Cl)N(C)C(=O)CC(OC(=O)CC(C)C)C1(C)OC1C(C)C1CC(O)(NC(=O)O1)C(OC)C=CC=C(C)C2", "note": "(stereo not drawn) [P-4]", "values": [{"measurement": "activity against Bacillus cereus", "setting": "Bacillus cereus", "value": "no activity"}, {"measurement": "activity against Bacillus subtilis", "setting": "Bacillus subtilis", "value": "no activity"}, {"measurement": "activity against Escherichia coli", "setting": "Escherichia coli", "value": "no activity"}, {"measurement": "activity against Klebsiella pneumoniae", "setting": "Klebsiella pneumoniae", "value": "no activity"}, {"measurement": "activity against Mycobacterium avium", "setting": "Mycobacterium avium", "value": "no activity"}, {"measurement": "activity against Proteus mirabilis", "setting": "Proteus mirabilis", "value": "no activity"}, {"measurement": "activity against Proteus vulgaris", "setting": "Proteus vulgaris", "value": "no activity"}, {"measurement": "activity against Pseudomonas aeruginosa", "setting": "Pseudomonas aeruginosa", "value": "no activity"}, {"measurement": "activity against Serratia marcescens", "setting": "Serratia marcescens", "value": "no activity"}, {"measurement": "activity against Staphylococcus aureus", "setting": "Staphylococcus aureus", "value": "no activity"}, {"measurement": "activity against Fusicladium levieri", "setting": "Fusicladium levieri", "value": "had the activity"}, {"measurement": "activity against Helminthosporium sigmoidium var. irregulare", "setting": "[1]", "value": "had the activity"}, {"measurement": "activity against Pyricularia oryzae", "setting": "Pyricularia oryzae", "value": "had the activity"}, {"measurement": "activity against Cochlioborus miyabeanus", "setting": "Cochlioborus miyabeanus", "value": "had the activity"}, {"measurement": "activity against Sclerotinia screrotiorum", "setting": "Sclerotinia screrotiorum", "value": "had the activity"}, {"measurement": "activity against Pellicularia sasakii", "setting": "Pellicularia sasakii", "value": "had the activity"}, {"measurement": "activity against Trichophyton rubrum", "setting": "Trichophyton rubrum", "value": "had the activity"}, {"measurement": "activity against Rhodotorula ruba", "setting": "Rhodotorula ruba", "value": "had the activity"}, {"measurement": "activity against Cryptococcus neoformans", "setting": "Cryptococcus neoformans", "value": "had the activity"}, {"measurement": "life-span-extending ratio", "setting": "P388 leukemia", "value": 180, "unit": "%"}, {"measurement": "LD50", "setting": "[2]", "value": "> 0.313", "unit": "mg/kg"}, {"measurement": "Solubility", "setting": "Solubility; in benzene, ether", "value": "Sparingly soluble"}, {"measurement": "Solubility", "setting": "Solubility; in chloroform, ethyl acetate, acetone, ethanol, methanol, pyridine, tetrahydrofuran, dimethylsulfoxide", "value": "Soluble"}, {"measurement": "Solubility", "setting": "Solubility; in petr. ether, hexane, water", "value": "Insoluble"}]}]}
